Reference: article PMC7021098 (Journal of Antimicrobial Chemotherapy, 2019)
Where two headings read alike, the source gives them in different places. Marks after values point to notes of the source that are not given here.

How the values were obtained:
[1] = cited from earlier work
[2] = Cabotegravir and rilpivirine concentrations in plasma and CSF by HPLC-MS/MS; type: in vivo, HIV-infected adults; details: for Total plasma drug / Total CSF drug / Unbound plasma drug / Total CSF/total plasma (%) / Kp: median (minimum–maximum); for Total CSF/total plasma (%) / Kp: paired samples; for Kp: human, CSF/plasma, intramuscular, Total CSF/total plasma (%)
[3] = system: WT HIV-1; details: cited from earlier work; for in vitro EC50 for WT HIV-1: ref 10 (cabotegravir), 37 (rilpivirine)
[4] = system: plasma proteins; details: cited from earlier work
[5] = Phase 1, monthly IM LA, cited from earlier work
[6] = system: P-glycoprotein; details: in vitro; ref 42 (cabotegravir), 43 (rilpivirine); cited from earlier work
[7] = system: breast cancer resistance protein (BCRP); details: in vitro; ref 42 (cabotegravir), 43 (rilpivirine); cited from earlier work
[8] = cited from earlier work; for reported CSF distribution: other NNRTIs
[9] = Q4W, n = 3, 7 ± 3 days after injection
[10] = Q8W, n = 15, 7 ± 3 days after injection

| SMILES | protein binding in CSF [1] | median CSF level, fold above in vitro EC50 for WT HIV-1 ([2]; Q4W group) | Total CSF/total plasma (%) ([2]; Q4W, n = 3) | median CSF level, fold above in vitro EC50 for WT HIV-1 ([2]; Q8W group) | Total CSF/total plasma (%) ([2]; Q8W, n = 13) | Kp ([2]; Q4W, n = 3) | Kp ([2]; Q8W, n = 13) | in vitro EC50 for WT HIV-1 [3] | bound to plasma proteins [4] | time to maximum plasma concentrations [5] | substrate for P-glycoprotein [6] | substrate for breast cancer resistance protein (BCRP) [7] | reported CSF distribution [8] | further results |
| --- | --- | --- | --- | --- | --- | --- | --- | --- | --- | --- | --- | --- | --- | --- |
| O=C(NCc1c(F)cc(F)cc1F)c1cn2c(c(O)c1=O)C(=O)N1[C@H]3CC[C@H](C3)O[C@@H]1C2 [bictegravir] | predominantly protein-bound | – | – | – | – | – | – | – | – | – | – | – | – | – |
| C[C@H]1CO[C@@H]2Cn3cc(C(=O)NCc4ccc(F)cc4F)c(=O)c(O)c3C(=O)N12 [cabotegravir] | – | 127 fold | 0.344 (0.312–0.421) % | 106 fold | 0.304 (0.218–0.449)^c % | 0.003 | 0.0034 | 0.10 ng/mL | > 99.8% | approximately 1 week | substrate | substrate | – | Total plasma drug ([2]; Q4W (cabotegravir LA 400 mg + rilpivirine LA 600 mg IM every 4 weeks), n = 3, 7 ± 3 days after injection): 3.02 (2.37–5.10) μg/mL; Total CSF drug [2, 9]: 0.0127 (0.0082–0.0159) μg/mL; Unbound plasma drug [2, 9]: 0.0019 (0.0014–0.0698) μg/mL; Total plasma drug ([2]; Q8W (cabotegravir LA 600 mg + rilpivirine LA 900 mg IM every 8 weeks), n = 15, 7 ± 3 days after injection): 3.92 (1.30–6.41) μg/mL; Total CSF drug ([2]; Q8W, n = 13, 7 ± 3 days after injection): 0.0106 (0.0053–0.0245)^c μg/mL; Unbound plasma drug [2, 10]: 0.0047 (0.0007–0.0220) μg/mL; EC50 ([3]; read-out: EC50 for WT HIV-1 clade B): 0.25 nM; maximum plasma concentrations (geometric mean) ([5]; after the fourth dose of cabotegravir): 2.2 to 4.4 µg/mL |
| C[C@@H]1CCO[C@H]2Cn3cc(C(=O)NCc4ccc(F)cc4F)c(=O)c(O)c3C(=O)N12 [dolutegravir] | – | – | – | – | – | – | – | – | – | – | – | – | – | CSF inhibitory quotient (ratio of drug concentration to EC50), median [8]: 66–90 fold; CSF-to-plasma ratio ([8]; oral administration at 50 mg once daily): 0.41% |
| O=C1Nc2ccc(Cl)cc2[C@@](C#CC2CC2)(C(F)(F)F)O1 [efavirenz] | – | – | – | – | – | – | – | – | – | – | – | – | 0.5% | – |
| Cc1cc(C#N)cc(C)c1Oc1nc(Nc2ccc(C#N)cc2)nc(N)c1Br [etravirine] | predominantly protein-bound | – | – | – | – | – | – | – | – | – | – | – | 1% | – |
| Cc1cc(/C=C/C#N)cc(C)c1Nc1ccnc(Nc2ccc(C#N)cc2)n1 [rilpivirine] | – | 6 fold | 1.32% | 7 fold | 1.07% | 0.0107 | 0.0132 | 0.27 ng/mL | 99.7% | approximately 1 week | not a substrate | not a substrate | – | Total plasma drug [2, 9]: 134 (83.0–187) ng/mL; Total CSF drug ([2]; Q4W, n = 3): 1.67 (1.40–2.47) ng/mL; Total CSF/total plasma (%) ([2]; Q4W, n = 3, listed as Rilpivirine): 1.32 (1.25–1.69) %; Total CSF/total plasma (%) ([2]; Q8W, n = 13, listed as Rilpivirine): 1.07 (NQ to 1.52)^c^, d %; Total plasma drug [2, 10]: 192 (91.7–378) ng/mL; plasma concentration in the participant with non-quantifiable CSF level ([2]; single participant): 117 ng/mL; CSF concentration in the one participant with non-quantifiable level ([2]; single participant, Q8W, not quantifiable): under 1 ng/mL; maximum plasma concentrations (geometric mean) ([5]; after the second dose of rilpivirine): 0.126 to 0.168 µg/mL; CSF-to-plasma ratio ([8]; 25 mg administered orally for 60 days): 1.4% |
